# Assay results reported in patent US5817012A, “Method of determining an analyte” (Sudormed, Inc., priority 1997, dated 1998).
# Where “and” joins values, the source holds several entries; their conditions need not be identical. Identical values can stand only once. Entries after “also recorded” stand apart in the source; their conditions may differ. Counter-ions that a name gives are not always drawn.
# Columns and labels:
# [1] = FIG. 13: cocaine in dermal patches after intravenous cocaine HCl; settings: 32 mg cocaine HCl intravenously
# Procedure: A dermal patch was then immediately placed on the subject's skin, and after 30 minutes this patch was removed and replaced by a new patch.
# [2] = cited from earlier work
# [3] = Example 12: amount of cocaine recovered on patch after nasal ingestion; settings: 126 mg nasally ingested; about 200 hours wear; 10 cm^2 disk
# [4] = in vivo; cited from earlier work
# [5] = FIG. 14: cocaine in dermal patches after smoked cocaine; settings: 42 mg smoked
# [6] = Table 2; weak bases (Wilson, J., Abused Drugs, 1990); cited from earlier work
# [7] = type: in vivo, human; settings: 60 mg codeine phosphate P.O.; first six hours; heating pad
# Procedure: FIG. 16 is a graph depicting the results of an experiment in which a subject was administered codeine and a dermal patch was then placed on each of the subject's thighs. A heating pad which was heated to 105° F. was then placed over one thigh while the other thigh remained unheated. The patches were replaced each hour for six hours, and a final pair of patches was placed on the subject's thighs for one hour between 24 and 25 hours after the administration of the codeine.
# Active perspiration can be caused by an increase in the body's temperature,such as during exercise. A further experiment was therefore conducted to see whether an increase in the temperature of only one area of the body could cause localized active perspiration. In this experiment, a subject was administered 60 mg of codeine phosphate (in the form of Naldecon CX P.O., 30 ml), and a dermal patch was then placed on each of the subject's thighs. A heating pad which was heated to 105° F. was then placed over one thigh while the other thigh remained unheated. The patches were replaced each hour for six hours, and a final pair of patches was placed on the subject's thighs for one hour between 24 and 25 hours after the administration of the codeine.
# [8] = Example 20: codeine level in urine, Tegaderm-only patches and patches with absorbent material (Table 3); type: in vivo, human
# Text: Five patches comprising only Tegaderm™ 1625 wound dressing were applied to a subject. […] Six patches comprising Tegaderm™ 1625 and another absorbent material were also applied to the subject at the same time. The collection surface area of the absorbent material in these patches was 14 cm^2. Prior to applying each of the patches, the area of skin under each patch was first swabbed with alcohol in order to remove any contaminants present on the surface of the skin.
# Twenty-four hours after the initial application of the patches to the subject, a pre-dose urine specimen and one of each of the two patch types were collected. The subject then orally consumed 60 mg of codeine phosphate (30 ml. Naldecon CX-60). This represents a typical codeine dose. At 30 and 48 hours post-dose, urine and one of each type of patch were collected.
# [9] = literature (Schwartz; Martindale); cited from earlier work
# [10] = type: in vivo, human; settings: seven days wear, subject who smoked a marijuana cigarette
# Procedure: THC polyclonal antibody from sheep (available from Biogenesis, Bournmouth, England) is diluted 1:100 in PBS (pH 7.5). The antibodies are bound to Gelman 0.45μ (SU-450) Ultrabind Supported Membrane, following the protocol in Gelman Original Equipment Manufacturer application P.N. 31,084. The membranes are air dried. Disks, 3/8 inch in diameter, are cut from the coated Gelman membranes.
# Each of the removed membranes is flushed five times with 300 μl of 0.2% Tween 20 in PBS. The membranes are incubated for 30 minutes in 100 μl of E-Z Screen Cannabinoid enzyme conjugate from the E-Z Screen Test Kit (available from Environmental Diagnostics, Inc., Burlington, N.C.).
# After incubation, each membrane is flushed three times with 300 μl of 0.2% Tween 20 in PBS, followed by three flushes with PBS alone. The membranes are then incubated in TMB Membrane Peroxide Substrate (available from Kirkegaard & Perry Labs, Gaithersburg, Md.) for 10 minutes. A light blue background appears in all six membranes. […] No white dots appear on the three membranes taken from the subject who has never used marijuana.
# [11] = Example 6: cocaine collected on patch converted to BE and analyzed with Roche RIA; settings: seven days wear, subject who ingested cocaine, pH 11, 20 minutes
# Text: Absorption disks, 3/8 inch in diameter, are cut from Gelman membranes (Gelman 0.45μ (SU-450) Ultrabind Supported Membranes). These 3/8 inch disks are mounted at the center of a 1/4 inch diameter hole cut in the center of a one inch diameter circle of Tegaderm 1625 Transparent Dressing (available from Minnesota Mining and Manufacturing, St. Paul, Minn.) to form a patch.
# The patches remain in place until they are removed seven days later from each subject.
# Following elution, the analyte solutions derived from each of the patches are brought to a pH of 11 by the addition of NaOH to each of the solutions. The solutions are reacted for 20 minutes at pH 11 and at room temperature, after which the solutions are neutralized with HCl.
smiles,measurement,setting,value
COC(=O)[C@H]1[C@@H](OC(=O)c2ccccc2)C[C@@H]2CC[C@H]1N2C [Cocaine],concentration of cocaine in perspiration after the fourth hour,[1],a steady decline
same,stability at pH values higher than 7,[2],unstable
same,back-diffusion from patch,almost 200 hours,without exhibiting significant back-diffusion; also recorded: significant back-diffusion was prevented
same,concentration of cocaine on the dermal patch over time,"almost 200 hours after ingestion, no specific binding chemistry","rose immediately during the first hours of the test, and thereafter stayed at approximately the same level for the remaining 200 hours"
same,cocaine recovered on the patch,[3],approximately 500 ng
same,cocaine recovered on the patch (in parentheses),[3],~0.5 mg
same,presence in perspiration and urine,[4],present in perspiration but not in urine
same,"cocaine concentration in patch, 8 to 24 hours","[5]; patch wet with perspiration, worn 8 to 24 hours",a significant rise in concentration
same,"cocaine concentration in patch, 4 to 8 hours",[5]; patch worn between 4 and 8 hours,a decline
same,analyte in patch worn 8 to 24 hours compared to patch worn 2 to 4 hours,[5]; subject actively perspired,significantly more analyte diffused into the patch worn between 8 and 24 hours
CN[C@@H](C)Cc1ccccc1 [Methamphetamine],pKa,[6],9.9
"COc1ccc2c3c1O[C@H]1[C@@H](O)C=C[C@H]4[C@@H](C2)N(C)CC[C@@]341 [Codeine, codeine]","analyte in patches, heated versus unheated thigh",[7],contained more analyte than the patches on the unheated thigh
same,ratio of recovered codeine in the Tegaderm-only patches compared to the patches with an absorbent material,[8]; 24.4/18.1,136%
same,"mean codeine level, all five patches having another absorbent material",[8]; 30 and 48 hours post-dose,18.1 ng/mL
same,"mean codeine level, all four Tegaderm-only patches",[8]; 30 and 48 hours post-dose,24.4 ng/mL
same,"Codeine Level, patch with absorbent material","[8]; 30 hours post-dose, 60 mg codeine phosphate orally, 14 cm^2",12.40 ng/mL and 23.99 ng/mL
same,urine codeine level,[8]; 48 hours post-dose,returned to baseline
same,"Codeine Level, urine sample","[8]; 48 hours post-dose, 60 mg codeine phosphate orally",0 ng/mL
same,"Codeine Level, patch with absorbent material","[8]; 48 hours post-dose, 60 mg codeine phosphate orally, 14 cm^2",14.39 ng/mL and 19.41 ng/mL and 20.17 ng/mL
same,"Codeine Level, Tegaderm-only patch","[8]; 48 hours post-dose, 60 mg codeine phosphate orally, 42 cm^2",17.69 ng/mL and 23.19 ng/mL
same,concentration at 30 h,"[8]; human, urine, po, 30 hours post-dose, 60 mg codeine phosphate orally, read-out: Codeine Level, urine sample",620 ng/mL
same,retention of codeine by both patch designs,[8]; in vivo,about 48 hours
same,pre-dose presence of codeine,[8]; pre-dose urine and patch specimens,no codeine was present
same,"Codeine Level, Tegaderm-only patch",[8]; predose,0 ng/mL
same,"Codeine Level, patch with absorbent material",[8]; predose,0 ng/mL
same,"Codeine Level, urine sample",[8]; predose,0 ng/mL
CCN(CC)C(=O)[C@@H]1C=C2c3cccc4[nH]cc(c34)C[C@H]2N(C)C1 [LSD],protection from light,[9],must be kept from exposure to strong light
CC(N)Cc1ccccc1 (stereo not drawn) [Amphetamine],pKa,[6],9.8
"CCCCCc1cc(O)c2c(c1)OC(C)(C)[C@@H]1CCC(C)=C[C@@H]21 [THC, tetrahydrocannabinol]",appearance of white dots on membranes (THC derivatives in sweat),[10],White dots appear over the background on the three membranes
COC(=O)[C@H]1[C@@H](OC(=O)c2ccccc2)C[C@@H]2CC[C@H]1N2C [cocaine hydrochloride],protection from light,[9],require protection from light
"CN1[C@H]2CC[C@@H]1[C@@H](C(=O)O)[C@@H](OC(=O)c1ccccc1)C2 [BE, benzoylecgonine]",concentration of BE in the subject's urine over time,in vivo,declining
same,diagnostic analysis for BE in patch extract,[11],tests positive
c1ccc(C2(N3CCCCC3)CCCCC2)cc1 [Phencyclidine],pKa,[6],8.5
